Assay results taken from PubChem BioAssay AID1259407 (Chemical Carcinogenesis Research Information System (CCRIS), 2018).
The source made the active and inactive calls. How the calls were made is not given here.

Test system: CCRIS mutagenicity, Ames/micronucleus/aberration tests
Assay: CCRIS mutagenicity studies

Structure (SMILES): O=C1CCC(=O)O1
- mutagenic call (Test System: AMES SALMONELLA TYPHIMURIUM, Strain/Indicator: TA97, Metabolic Activation: HAMSTER, LIVER, S-9, AROCLOR 1254 (10%), Method: PREINCUBATION): inactive; negative
- mutagenic call (Test System: AMES SALMONELLA TYPHIMURIUM, Strain/Indicator: TA97, Metabolic Activation: HAMSTER, LIVER, S-9, AROCLOR 1254 (30%), Method: PREINCUBATION): inactive; negative
- mutagenic call (Test System: AMES SALMONELLA TYPHIMURIUM, Strain/Indicator: TA97, Metabolic Activation: HAMSTER, LIVER, S-9, AROCLOR 1254, Method: PREINCUBATION): inactive; negative
- mutagenic call (Test System: AMES SALMONELLA TYPHIMURIUM, Strain/Indicator: TA97, Metabolic Activation: NONE, Method: PREINCUBATION): inactive; negative
- mutagenic call (Test System: AMES SALMONELLA TYPHIMURIUM, Strain/Indicator: TA97, Metabolic Activation: RAT, LIVER, S-9, AROCLOR 1254 (10%), Method: PREINCUBATION): inactive; negative
- mutagenic call (Test System: AMES SALMONELLA TYPHIMURIUM, Strain/Indicator: TA97, Metabolic Activation: RAT, LIVER, S-9, AROCLOR 1254 (30%), Method: PREINCUBATION): inactive; negative
- mutagenic call (Test System: AMES SALMONELLA TYPHIMURIUM, Strain/Indicator: TA97, Metabolic Activation: RAT, LIVER, S-9, AROCLOR 1254, Method: PREINCUBATION): inactive; negative
- mutagenic call (Test System: AMES SALMONELLA TYPHIMURIUM, Strain/Indicator: TA98, Metabolic Activation: HAMSTER, LIVER, S-9, AROCLOR 1254 (10%), Method: PREINCUBATION): inactive; negative
- mutagenic call (Test System: AMES SALMONELLA TYPHIMURIUM, Strain/Indicator: TA98, Metabolic Activation: HAMSTER, LIVER, S-9, AROCLOR 1254 (30%), Method: PREINCUBATION): inactive; negative
- mutagenic call (Test System: AMES SALMONELLA TYPHIMURIUM, Strain/Indicator: TA98, Metabolic Activation: HAMSTER, LIVER, S-9, AROCLOR 1254, Method: PREINCUBATION): inactive; negative
- mutagenic call (Test System: AMES SALMONELLA TYPHIMURIUM, Strain/Indicator: TA98, Metabolic Activation: NONE, Method: PREINCUBATION): inactive; negative
- mutagenic call (Test System: AMES SALMONELLA TYPHIMURIUM, Strain/Indicator: TA98, Metabolic Activation: RAT, LIVER, S-9, AROCLOR 1254 (10%), Method: PREINCUBATION): inactive; negative
- mutagenic call (Test System: AMES SALMONELLA TYPHIMURIUM, Strain/Indicator: TA98, Metabolic Activation: RAT, LIVER, S-9, AROCLOR 1254 (30%), Method: PREINCUBATION): inactive; negative
- mutagenic call (Test System: AMES SALMONELLA TYPHIMURIUM, Strain/Indicator: TA98, Metabolic Activation: RAT, LIVER, S-9, AROCLOR 1254, Method: PREINCUBATION): inactive; negative
- mutagenic call (Test System: AMES SALMONELLA TYPHIMURIUM, Strain/Indicator: TA100, Metabolic Activation: HAMSTER, LIVER, S-9, AROCLOR 1254 (10%), Method: PREINCUBATION): inactive; negative
- mutagenic call (Test System: AMES SALMONELLA TYPHIMURIUM, Strain/Indicator: TA100, Metabolic Activation: HAMSTER, LIVER, S-9, AROCLOR 1254 (30%), Method: PREINCUBATION): inactive; negative
- mutagenic call (Test System: AMES SALMONELLA TYPHIMURIUM, Strain/Indicator: TA100, Metabolic Activation: HAMSTER, LIVER, S-9, AROCLOR 1254, Method: PREINCUBATION): inactive; negative
- mutagenic call (Test System: AMES SALMONELLA TYPHIMURIUM, Strain/Indicator: TA100, Metabolic Activation: NONE, Method: PREINCUBATION): inactive; negative
- mutagenic call (Test System: AMES SALMONELLA TYPHIMURIUM, Strain/Indicator: TA100, Metabolic Activation: RAT, LIVER, S-9, AROCLOR 1254 (10%), Method: PREINCUBATION): inactive; negative
- mutagenic call (Test System: AMES SALMONELLA TYPHIMURIUM, Strain/Indicator: TA100, Metabolic Activation: RAT, LIVER, S-9, AROCLOR 1254 (30%), Method: PREINCUBATION): inactive; negative
- mutagenic call (Test System: AMES SALMONELLA TYPHIMURIUM, Strain/Indicator: TA100, Metabolic Activation: RAT, LIVER, S-9, AROCLOR 1254, Method: PREINCUBATION): inactive; negative
- mutagenic call (Test System: AMES SALMONELLA TYPHIMURIUM, Strain/Indicator: TA1535, Metabolic Activation: HAMSTER, LIVER, S-9, AROCLOR 1254 (10%), Method: PREINCUBATION): inactive; negative
- mutagenic call (Test System: AMES SALMONELLA TYPHIMURIUM, Strain/Indicator: TA1535, Metabolic Activation: HAMSTER, LIVER, S-9, AROCLOR 1254 (30%), Method: PREINCUBATION): inactive; negative
- mutagenic call (Test System: AMES SALMONELLA TYPHIMURIUM, Strain/Indicator: TA1535, Metabolic Activation: HAMSTER, LIVER, S-9, AROCLOR 1254, Method: PREINCUBATION): inactive; negative
- mutagenic call (Test System: AMES SALMONELLA TYPHIMURIUM, Strain/Indicator: TA1535, Metabolic Activation: NONE, Method: PREINCUBATION): inactive; negative
- mutagenic call (Test System: AMES SALMONELLA TYPHIMURIUM, Strain/Indicator: TA1535, Metabolic Activation: RAT, LIVER, S-9, AROCLOR 1254 (10%), Method: PREINCUBATION): inactive; negative
- mutagenic call (Test System: AMES SALMONELLA TYPHIMURIUM, Strain/Indicator: TA1535, Metabolic Activation: RAT, LIVER, S-9, AROCLOR 1254 (30%), Method: PREINCUBATION): inactive; negative
- mutagenic call (Test System: AMES SALMONELLA TYPHIMURIUM, Strain/Indicator: TA1535, Metabolic Activation: RAT, LIVER, S-9, AROCLOR 1254, Method: PREINCUBATION): inactive; negative
- mutagenic call (Test System: AMES SALMONELLA TYPHIMURIUM, Strain/Indicator: TA1537, Metabolic Activation: HAMSTER, LIVER, S-9, AROCLOR 1254 (10%), Method: PREINCUBATION): inactive; negative
- mutagenic call (Test System: AMES SALMONELLA TYPHIMURIUM, Strain/Indicator: TA1537, Metabolic Activation: HAMSTER, LIVER, S-9, AROCLOR 1254, Method: PREINCUBATION): inactive; negative
- mutagenic call (Test System: AMES SALMONELLA TYPHIMURIUM, Strain/Indicator: TA1537, Metabolic Activation: NONE, Method: PREINCUBATION): inactive; negative
- mutagenic call (Test System: AMES SALMONELLA TYPHIMURIUM, Strain/Indicator: TA1537, Metabolic Activation: RAT, LIVER, S-9, AROCLOR 1254 (10%), Method: PREINCUBATION): inactive; negative
- mutagenic call (Test System: AMES SALMONELLA TYPHIMURIUM, Strain/Indicator: TA1537, Metabolic Activation: RAT, LIVER, S-9, AROCLOR 1254, Method: PREINCUBATION): inactive; negative

Structure (SMILES): O=C(O)CCSCCC(=O)O
- mutagenic call (Test System: Ames Salmonella typhimurium, Strain/Indicator: TA98, Metabolic Activation: None, Method: Preincubation): inactive; negative
- mutagenic call (Test System: Ames Salmonella typhimurium, Strain/Indicator: TA98, Metabolic Activation: Rat, Liver, S-9, Phenobarbital and 5,6-benzoflavone, Method: Preincubation): inactive; negative
- mutagenic call (Test System: Ames Salmonella typhimurium, Strain/Indicator: TA100, Metabolic Activation: None, Method: Preincubation): inactive; negative
- mutagenic call (Test System: Ames Salmonella typhimurium, Strain/Indicator: TA100, Metabolic Activation: Rat, Liver, S-9, Phenobarbital and 5,6-benzoflavone, Method: Preincubation): inactive; negative
- mutagenic call (Test System: Ames Salmonella typhimurium, Strain/Indicator: TA1535, Metabolic Activation: None, Method: Preincubation): inactive; negative
- mutagenic call (Test System: Ames Salmonella typhimurium, Strain/Indicator: TA1535, Metabolic Activation: Rat, Liver, S-9, Phenobarbital and 5,6-benzoflavone, Method: Preincubation): inactive; negative
- mutagenic call (Test System: Ames Salmonella typhimurium, Strain/Indicator: TA1537, Metabolic Activation: None, Method: Preincubation): inactive; negative
- mutagenic call (Test System: Ames Salmonella typhimurium, Strain/Indicator: TA1537, Metabolic Activation: Rat, Liver, S-9, Phenobarbital and 5,6-benzoflavone, Method: Preincubation): inactive; negative
- mutagenic call (Test System: E. coli, Strain/Indicator: WP2uvrA/pKM101, Metabolic Activation: None, Method: Preincubation): inactive; negative
- mutagenic call (Test System: E. coli, Strain/Indicator: WP2uvrA/pKM101, Metabolic Activation: Rat, Liver, S-9, Phenobarbital and 5,6-benzoflavone, Method: Preincubation): inactive; negative

Structure (SMILES): CC(=O)Nc1ccc(N=Nc2ccc(N(C)C)cc2)cc1
- mutagenic call (Test System: AMES SALMONELLA TYPHIMURIUM, Strain/Indicator: TA98, Metabolic Activation: RAT, LIVER, S-9, POLYCHLORINATED BIPHENYLS, Method: PREINCUBATION): active; positive
- mutagenic call (Test System: AMES SALMONELLA TYPHIMURIUM, Strain/Indicator: TA100, Metabolic Activation: RAT, LIVER, S-9, POLYCHLORINATED BIPHENYLS, Method: PREINCUBATION): inactive; negative
